Assays:
[1] = biological target: Adenosine receptor A2a (Homo sapiens) (UniProt P29274); test: Percent displacement of [3H]-ZM 241385 binding to human adenosine A2A receptor expressed in CHO cells at 1 uM; format: cell-based
[2] = biological target: T1, Adenosine receptor A3 (Homo sapiens) (UniProt P0DMS8); test: Percent displacement of [125I]AB-MECA binding to human adenosine A3 receptor expressed in HEK 293 cells at 1 uM; format: cell-based; details: HEK293
T1 sequence (whole entry): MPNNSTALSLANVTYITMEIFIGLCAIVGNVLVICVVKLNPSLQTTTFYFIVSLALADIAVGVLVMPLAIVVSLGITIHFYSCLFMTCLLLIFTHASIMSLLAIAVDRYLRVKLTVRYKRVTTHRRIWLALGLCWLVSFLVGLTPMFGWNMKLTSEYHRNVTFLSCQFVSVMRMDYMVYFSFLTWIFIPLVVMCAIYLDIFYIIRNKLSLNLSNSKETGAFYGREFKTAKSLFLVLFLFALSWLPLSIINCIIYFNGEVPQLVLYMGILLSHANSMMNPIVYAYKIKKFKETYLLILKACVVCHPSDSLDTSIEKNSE

[3] = biological target: T2, Adenosine receptor A1 (Homo sapiens) (UniProt P30542); test: Effect on forskolin-induced cAMP levels at human A1 adenosine receptor compared to CPA (full agonist, 100% inhibition) and DPCPX(full inverse agonist, 100% stimulation); format: functional
T2 sequence (whole entry): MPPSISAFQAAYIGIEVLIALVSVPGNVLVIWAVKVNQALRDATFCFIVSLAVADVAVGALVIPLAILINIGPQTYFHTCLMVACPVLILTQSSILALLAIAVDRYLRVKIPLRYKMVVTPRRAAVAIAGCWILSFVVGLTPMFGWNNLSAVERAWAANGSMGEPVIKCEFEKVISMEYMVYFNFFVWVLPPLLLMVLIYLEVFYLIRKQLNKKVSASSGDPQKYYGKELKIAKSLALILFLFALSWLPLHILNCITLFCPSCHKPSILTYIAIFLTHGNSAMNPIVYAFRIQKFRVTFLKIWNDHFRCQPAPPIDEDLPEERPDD

Adenosine receptor A1 = biological target: T3, Adenosine receptor A1 (Homo sapiens, UniProt P30542); test: biochemical
T3 sequence (P30542 whole entry): T2 sequence (whole entry)
Description: Displacement of [3H]DPCPX binding to human adenosine A1 receptor expressed in CHO cells

[4] = biological target: T2, Adenosine receptor A1 (Homo sapiens); test: Percent displacement of [3H]DPCPX binding to human adenosine A1 receptor expressed in CHO cells at 1 uM; format: cell-based

Chain of Adenosine receptor A2a (Homo sapiens) (P29274 whole entry): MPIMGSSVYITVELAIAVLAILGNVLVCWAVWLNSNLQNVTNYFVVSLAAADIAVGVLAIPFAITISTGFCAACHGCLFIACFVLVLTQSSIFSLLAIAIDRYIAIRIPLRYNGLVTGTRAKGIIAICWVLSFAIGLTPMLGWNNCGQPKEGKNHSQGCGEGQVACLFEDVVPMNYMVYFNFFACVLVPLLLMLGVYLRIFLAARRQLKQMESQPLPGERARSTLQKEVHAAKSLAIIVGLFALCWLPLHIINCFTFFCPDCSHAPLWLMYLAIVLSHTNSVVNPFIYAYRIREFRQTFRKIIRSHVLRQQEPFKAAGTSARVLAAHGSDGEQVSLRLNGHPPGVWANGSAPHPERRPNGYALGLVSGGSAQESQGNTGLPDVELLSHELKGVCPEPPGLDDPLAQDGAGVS

Displacement [1] | Displacement [2] | Change in cAMP [3] | Ki (Adenosine receptor A1) | Displacement [4] | Structure (SMILES)
3% | 11% | 80% | 30 nM |  | N#Cc1c(N)nc(SCCO)c(C#N)c1-c1cccc(OC(F)(F)F)c1
 |  | 100% |  |  | CCCn1c(=O)c2[nH]c(C3CCCC3)nc2n(CCC)c1=O
 | 15% | 72% | 1080 nM |  | Cn1cnc2c(NC3CCCC3)ncnc21
33% | 13% | -111% | 11 nM |  | N#Cc1c(N)nc(SCCO)c(C#N)c1-c1ccc2c(c1)OCO2
13% | 0% | 48% | 150 nM |  | N#Cc1c(N)nc(SCCO)c(C#N)c1-c1ccc(C(F)(F)F)cc1
21% | 18% | -58% | 4.3 nM |  | COc1cccc(-c2c(C#N)c(N)nc(SCCO)c2C#N)c1
8% | 21% | -16% | 41 nM |  | COc1ccc(-c2c(C#N)c(N)nc(SCCO)c2C#N)cc1
37% | 0% | -93% | 23 nM |  | N#Cc1c(N)nc(SCCO)c(C#N)c1-c1ccc(O)cc1
22% | 49% | 85% | 14 nM |  | N#Cc1c(N)nc(SCCO)c(C#N)c1-c1cccc(C(F)(F)F)c1
0% | 10% | 12% | 156 nM |  | N#Cc1c(N)nc(SCCO)c(C#N)c1-c1ccc(OC(F)(F)F)cc1
25% | 16% | -105% | 12 nM |  | N#Cc1c(N)nc(SCCO)c(C#N)c1-c1cccc(O)c1
23% | 26% | -72% | 15 nM |  | N#Cc1c(N)nc(SCCO)c(C#N)c1-c1ccccc1
4% | 0% | -51% | 81 nM |  | N#Cc1c(N)nc(SCCO)c(C#N)c1-c1ccc(F)cc1
20% | 0% | -16% | 49 nM |  | Cc1ccc(-c2c(C#N)c(N)nc(SCCO)c2C#N)cc1
25% | 0% |  |  | 25% | COc1ccc(-c2c(C#N)c(N)nc(SCCO)c2C#N)cc1OC
29% | 5% | -78% | 81 nM |  | Cc1cccc(-c2c(C#N)c(N)nc(SCCO)c2C#N)c1
19% | 8% | -102% | 40 nM |  | N#Cc1c(N)nc(SCCO)c(C#N)c1-c1cccc(F)c1
0% | 23% | 4% | 34 nM |  | N#Cc1c(N)nc(SCCO)c(C#N)c1-c1ccc(OC(F)F)cc1
8% | 12% | 6% | 40 nM |  | N#Cc1c(N)nc(SCCO)c(C#N)c1-c1cccc(OC(F)F)c1
 |  | -100% |  |  | OC[C@H]1O[C@@H](n2cnc3c(NC4CCCC4)ncnc32)[C@H](O)[C@@H]1O
0% | 7% | -65% | 245 nM |  | CN(C)c1ccc(-c2c(C#N)c(N)nc(SCCO)c2C#N)cc1

Reference: ChEMBL document CHEMBL1145202, “A series of ligands displaying a remarkable agonistic-antagonistic profile at the adenosine A1 receptor” (J Med Chem, 2005)
